This is an account of results in PubChem BioAssay (NCI).

What all share (assay): inhibition of tumour cell growth, NCI panel, 48 h
Assay [1] concerns NCI/ADR-RES ovarian.
Assay [2] concerns T-47D breast.
Assay [3] deals with BT-549 breast.
The subject of assay [4] is MDA-MB-435.
Assay [5] deals with MCF7 breast.
Assay [6] deals with PC-3 prostate.

Several values for one entry are separate records, joined by “and”; a condition that tells them apart may be missing. Equal values may be shown once.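 Method: 48-hour compound exposure of cells in 96-well plates, five concentrations, linear interpolation of endpoints. Abbreviation: GI50, concentration required for 50% inhibition of growth. At the TGI there is no net growth.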 Some results are limits rather than exact numbers.

In the case of `COc1cc2c(c(OC)c1OC)-c1ccc(N)c(=O)cc1[C@@H](NC(C)=O)CC2`, the GI50 was 3.43 µM in assay [1]; more than 100 µM in assay [2]; 0.0164 µM in assay [3]; less than 0.01 µM in assay [4]; less than 0.01 µM in assay [5]; 0.0354 µM in assay [6]. Moreover, the TGI in assay [1] is 41.2 µM; in assay [2] it was more than 100 µM; in assay [3] it was 0.0744 µM; in assay [5], more than 100 µM; in assay [6] it was more than 100 µM.

For the compound `CCCCCCCCCCCCCCN`, the TGI in assay [1], in assay [2], in assay [3], in assay [4], in assay [5] and in assay [6] was more than 100 µM throughout.

Take `O=C1c2ccc([N+](=O)[O-])cc2-c2c1c1ccccc1c(=O)n2CCCNCCCNCCCn1c2c(c3ccc([N+](=O)[O-])cc3c1=O)C(=O)c1ccccc1-2`: the GI50 in assay [1] was 7.51 µM; in assay [2], 2.23 µM; in assay [3], 4.91 µM; in assay [4] it was 3.88 µM; in assay [5], 0.961 µM; in assay [6], 3.31 µM. Moreover, the TGI in assay [1] was 63.5 µM; in assay [2], 7.95 µM; in assay [3], 37.2 µM; in assay [4], more than 46.6 µM; in assay [5] it was 4.55 µM; in assay [6], 15.9 µM.

For the compound `O=C(/C=C/C12c3ccccc3C(c3ccccc31)C1C(=O)N(c3ccccc3)C(=O)C12)c1ccccc1` (stereo unspecified), the GI50 in assay [1] is 2.23 µM; in assay [3] it was 1.37 µM; in assay [4], 2.56 µM; in assay [5] it was 1.48 µM; in assay [6], 2.07 µM. Besides, the TGI in assay [1] is more than 100 µM; in assay [3] it was 3.02 µM; in assay [4], more than 100 µM; in assay [5], more than 100 µM; in assay [6], more than 100 µM.

With `O=C(c1ccc2ccccc2c1)c1c(C(F)(F)F)n([O-])c2cc(F)c(F)cc2[n+]1=O`, the GI50 is 2.93 µM in assay [1]; 2.67 µM in assay [2]; 1.89 µM in assay [3]; 1.96 µM in assay [4]; 3.11 µM in assay [5]; 1.48 µM in assay [6]. Further, the TGI was 11.2 µM in assay [1]; 6.14 µM in assay [2]; 4.17 µM in assay [3]; 4.12 µM in assay [4]; more than 100 µM in assay [5]; 2.9 µM in assay [6].

Take `CN1CCN(c2ccc(NC(=O)c3nc4ccc5[nH]ncc5c4c4c3CCCC4)cc2C(F)(F)F)CC1`: the GI50 in assay [1] is 1.27 µM; in assay [2], 0.835 µM; in assay [3], 6.07 µM; in assay [4], 0.899 µM; in assay [5], 0.964 µM. For the same compound, the TGI in assay [1] turned out to be 4.21 µM; in assay [2], 1.74 µM; in assay [3], 12.4 µM; in assay [4], 1.74 µM; in assay [5], 2.32 µM.

In the case of `COc1ccc2c(c1)C(=O)c1c-2n(CCCN=[N+]=[N-])c(=O)c2cc(N(C)C)ccc12`, the GI50 in assay [1] was more than 100 µM; in assay [2] it was 61.3 µM; in assay [3] it was 6.15 µM; in assay [4] it was more than 100 µM; in assay [5], more than 100 µM; in assay [6], more than 100 µM. Further, the TGI in assay [1], in assay [2], in assay [3], in assay [4], in assay [5] and in assay [6] was more than 100 µM in each case.

On to `CCCn1c(SC)nc(COC(=O)NC)c1COC(=O)NC`, for which the TGI in assay [1], in assay [2], in assay [3], in assay [4], in assay [5] and in assay [6] was more than 100 µM each time.

Consider `CCCc1c(CC)c(=N)c2ccccc2n1C`, for which the GI50 is more than 100 µM in assay [1]; 33 µM in assay [2]; 44.2 µM in assay [3]; more than 100 µM in assay [4]; 30 µM in assay [5]; 71.5 µM in assay [6]. Moreover, the TGI in assay [1], in assay [2], in assay [3], in assay [4], in assay [5] and in assay [6] was more than 100 µM each time.

Consider `O=C(/C(=C\C(=O)c1cccs1)c1ccsc1)c1ccc(Br)cc1`, for which the TGI in assay [1], in assay [2], in assay [4], in assay [5] and in assay [6] was more than 100 µM each time.

In the case of `Oc1ccc(C(c2ccc(O)cc2)c2ccc(Cl)cn2)cc1`, the GI50 in assay [1] is 0.0512 µM; in assay [2], 0.0243 µM; in assay [3], 0.0231 µM; in assay [4] it was 23.3 µM; in assay [5] it was 0.0546 µM; in assay [6] it was 0.194 µM. The TGI in assay [1] is 0.284 µM; in assay [2], 0.0762 µM; in assay [3], 0.0707 µM; in assay [4], more than 86.2 µM; in assay [5] it was 0.545 µM; in assay [6], 0.708 µM.

`CCOC(=O)C1=C(C(=O)c2ccc(C)cc2)C(c2cccc([N+](=O)[O-])c2)C(C(=O)c2ccc(C)cc2)=C(C(=O)OCC)N1`: the TGI is 39.2 µM in assay [1]; 8.84 µM in assay [2]; more than 100 µM in assay [3]; 33.2 µM in assay [4]; more than 100 µM in assay [5]; 59.9 µM in assay [6].

As to `O=C(Nc1ccc(F)cc1)c1ccc(NC2=C(Cl)C(=O)N(Cc3ccccc3)C2=O)cc1`, the GI50 in assay [1] is 53.3 µM; in assay [2] it was 5.69 µM; in assay [3], 3.14 µM; in assay [4], 7.07 µM; in assay [5], 6.24 µM; in assay [6] it was 7.42 µM. Also, the TGI in assay [1] is more than 100 µM; in assay [2] it was more than 100 µM; in assay [3] it was 10.8 µM; in assay [4] it was 26.3 µM; in assay [5] it was more than 100 µM; in assay [6], 22.3 µM.

For `O=Nc1c(-c2c(O)[nH]c3ccc([N+](=O)[O-])cc23)[nH]c2ccc(O)cc12`, the GI50 is 1.44 µM in assay [1]; 0.506 µM in assay [2]; 0.463 µM in assay [3]; 0.406 µM in assay [4]; 0.247 µM in assay [5]; 0.394 µM in assay [6]. The TGI in assay [1] was more than 100 µM; in assay [2] it was more than 100 µM; in assay [3], more than 100 µM; in assay [4] it was more than 57.8 µM; in assay [5] it was more than 100 µM; in assay [6] it was more than 100 µM.

For the compound `FC(F)(F)c1cc(-c2nnc3n2N=C(N2CCCC2)CS3)cc(C(F)(F)F)c1`, the GI50 in assay [1] was more than 50 µM; in assay [2], 19.3 µM; in assay [3] it was more than 50 µM; in assay [4], more than 50 µM; in assay [5] it was more than 50 µM; in assay [6], more than 50 µM. Also, the TGI in assay [1], in assay [2], in assay [3], in assay [4], in assay [5] and in assay [6] was more than 50 µM in each case.

`C=CCN(/C=C1/C(=O)O[C@H](COC)[C@@]2(C)C1=C(O)C(=O)C1=C2[C@H](OC(C)=O)C[C@]2(C)C(=O)CC[C@@H]12)CC=C`: the GI50 was more than 4.75 µM in assay [1]; 0.0992 µM in assay [2]; 0.141 µM in assay [3]; 2.68 µM in assay [4]; 0.435 µM in assay [5]; 0.177 µM in assay [6]. Further, the TGI in assay [1] was more than 10 µM; in assay [2], more than 3.78 µM; in assay [3] it was 4.12 µM; in assay [4] it was more than 10 µM; in assay [5], more than 10 µM; in assay [6] it was more than 10 µM.

Consider `CCOC(=O)C1=C(c2ccccc2)N(C)c2ccccc2S1`, for which the TGI in assay [1] was 65.1 µM; in assay [2], 73.9 µM; in assay [3], 66.6 µM; in assay [4] it was more than 100 µM; in assay [5] it was 78.8 µM; in assay [6], more than 100 µM.

For `COc1ccc2c(c1)/C(=C\c1cccnc1)C(=O)N2`, the GI50 in assay [1] was 25.4 µM; in assay [2] it was 13 µM; in assay [3], 13.3 µM; in assay [4] it was 35.9 µM; in assay [5], 10.9 µM; in assay [6], 33.1 µM. Moreover, the TGI in assay [1] was 70.1 µM; in assay [2], 37.9 µM; in assay [3], 32.3 µM; in assay [4], more than 100 µM; in assay [5], 53.4 µM; in assay [6], more than 100 µM.

Take `COc1ccc(-c2nc3sc(-c4ccc(Cl)cc4)cn3n2)cc1`: the GI50 was 3.75 µM in assay [1]; 3.54 µM in assay [2]; 43.2 µM in assay [3]; more than 50 µM in assay [4]; 2.62 µM in assay [5]; more than 50 µM in assay [6]. In addition, the TGI in assay [1], in assay [2], in assay [3], in assay [4], in assay [5] and in assay [6] was more than 50 µM in each case.

For `CC(=O)/C(=C/n1c(=S)[nH]c2ccccc21)C(=O)Nc1ccccc1C`, the TGI in assay [1], in assay [2], in assay [3] and in assay [4] was more than 100 µM in each case.

For the compound `COc1ccc(-c2cc(=O)c3c(C)cc(C)nc3[nH]2)cc1`, the TGI in assay [1] is more than 100 µM; in assay [2], more than 100 µM; in assay [3] it was 86.7 µM; in assay [4], more than 100 µM; in assay [5] it was more than 100 µM; in assay [6], more than 100 µM. Also, the GI50 in assay [4] was 29.1 µM; in assay [6], 23.9 µM.

Consider `O=C1C=C(NCCNC(=S)Nc2ccccc2)c2nccc3c2c1nc1ccccc13`, for which the GI50 in assay [1] is more than 100 µM; in assay [2], more than 100 µM; in assay [3], 70.1 µM; in assay [4], 15.6 µM; in assay [5], 23.3 µM; in assay [6], more than 100 µM. For the same compound, the TGI in assay [1] was more than 100 µM; in assay [2] it was more than 100 µM; in assay [3] it was more than 100 µM; in assay [4], 47.7 µM; in assay [5] it was more than 100 µM; in assay [6], more than 100 µM.

In the case of `CO/C(=N\N=C\c1cccc(Cl)c1)c1ccncc1`, the TGI in assay [1], in assay [2], in assay [3], in assay [4], in assay [5] and in assay [6] was more than 10 µM in each case.

Turning to `Cc1ccc(S(=O)(=O)NCCNC2=CC(=O)c3nc4ccccc4c4ccnc2c34)cc1`, the GI50 in assay [1] was 17 µM; in assay [2], 25.6 µM; in assay [3], 19.2 µM; in assay [4] it was 17.7 µM; in assay [5], 12.9 µM; in assay [6], 16 µM. The TGI was 55.4 µM in assay [1]; 95.9 µM in assay [2]; 46.1 µM in assay [3]; 41.2 µM in assay [4]; 32.7 µM in assay [5]; 49.8 µM in assay [6].

Regarding `COc1ccc(N2Cc3cnc(Nc4ccccc4)nc3N([C@@H]3CC[C@@H](O)C3)C2=O)cc1`, the GI50 in assay [1] is 6.9 µM; in assay [2], 11.9 µM; in assay [3], 5.27 µM; in assay [4] it was 5.98 µM; in assay [5] it was 16.5 µM; in assay [6] it was 6.93 µM. The TGI in assay [1], in assay [2], in assay [3], in assay [4], in assay [5] and in assay [6] was more than 25 µM throughout.

Take `COc1cc(CCN)c2c(c1OC)SSSSS2`: the GI50 in assay [1] is 1.63 µM; in assay [3], 0.793 µM; in assay [4] it was 1.63 µM; in assay [6] it was 1.59 µM. Also, the TGI stood at 3.73 µM in assay [1], 2.23 µM in assay [3], 3.32 µM in assay [4] and 2.93 µM in assay [6].

Regarding `CCCCS(=O)CCC(N)C(=O)O` (stereo unspecified), the TGI in assay [1], in assay [2], in assay [3], in assay [5] and in assay [6] was more than 100 µM each time.

On to `COc1cc(/C=C2\CCC/C(=C\c3cc(OC)c(O)c(OC)c3)C2=O)cc(OC)c1O`, for which the TGI in assay [2] was 75 µM; in assay [3], 5.92 µM; in assay [4], 75 µM and > 100 µM; in assay [5], 75 µM and > 100 µM. Also, the GI50 in assay [4] is 2.57 µM; in assay [5], 4 µM; in assay [6] it was 1.24 µM.
